pIC50, pKd: −log10 of the molar value. Where “and” joins values, the source holds several entries; their conditions need not be identical. Equal values may be shown once.
What was measured:
P. falciparum DD2 = test system: P. falciparum DD2; design: method as in ChEMBL; settings: ref ChEMBL; cited from earlier work
AAK1 = AAK1 (Homo sapiens, UniProt Q2M2I8); test: Kinobead competition assay in K562 extract: AAK1
Procedure: Kinobeads were prepared as described [25, 26]. […] Briefly, Kinobeads were washed and equilibrated in lysis buffer (50 mM Tris-Cl, pH 7.4, 0.4% Igepal-CA630, 1.5 mM MgCl2, 5% Glycerol, 150 mM NaCl, 25 mM NaF, 1 mM Na3VO4, 1 mM DTT, and 1 complete EDTA-free protease inhibitor tablet (Roche) per 25 ml). […] Digestion, labeling with TMT isobaric mass tags, peptide fractionation, and mass spectrometric analyses were performed essentially as described [27]. Criteria for protein quantification were: a minimum of 2 sequence assignments matching to unique peptides was required (FDR for quantified proteins <<0.1%), Mascot ion score > 15, signal to background ratio of the precursor ion > 4, signal to interference > 0.5 [28]. Reporter ion intensities were multiplied by ion accumulation time, yielding an area value proportional to the number of reporter ions present in the mass analyzer. Peptide fold changes were corrected for isotope purity as described and adjusted for interference caused by co-eluting nearly isobaric peaks as estimated by the signal-to-interference measure [29]. Protein quantification was achieved using a sum-based bootstrap algorithm [30]. Apparent dissociation constants were determined by taking into account the protein depletion by the beads as described [27].
Kinobeads were incubated with K562 cell extract either in the presence of vehicle (DMSO) or TCAMS compound, respectively (20 μM-0.03 μM). Protein kinases captured by the beads (140–150 kinases per experiment) were quantified following tryptic digestion, isobaric peptide tagging, and LC-MS/MS analysis. Kinases were identified as potential targets by virtue of their reduced capture in the presence of excess TCAMS compounds. Apparent dissociation constants (Kd’s) were calculated from the extent to which capture of each kinase was reduced at each compound concentration.

PLK1 = PLK1 (Homo sapiens, UniProt P53350); test: biochemical
MAP3K7 = molecular target: T1, MAP3K7 (Homo sapiens, UniProt O43318); test: biochemical; design: endogenous in cells; host or cells: K562 cell extract; species or system K562 (extract); replicate k of n = 2 (each experiment ID is one independent experiment; two experiment IDs per compound); settings: read-out: KDapp
T1 sequence (O43318 1-606): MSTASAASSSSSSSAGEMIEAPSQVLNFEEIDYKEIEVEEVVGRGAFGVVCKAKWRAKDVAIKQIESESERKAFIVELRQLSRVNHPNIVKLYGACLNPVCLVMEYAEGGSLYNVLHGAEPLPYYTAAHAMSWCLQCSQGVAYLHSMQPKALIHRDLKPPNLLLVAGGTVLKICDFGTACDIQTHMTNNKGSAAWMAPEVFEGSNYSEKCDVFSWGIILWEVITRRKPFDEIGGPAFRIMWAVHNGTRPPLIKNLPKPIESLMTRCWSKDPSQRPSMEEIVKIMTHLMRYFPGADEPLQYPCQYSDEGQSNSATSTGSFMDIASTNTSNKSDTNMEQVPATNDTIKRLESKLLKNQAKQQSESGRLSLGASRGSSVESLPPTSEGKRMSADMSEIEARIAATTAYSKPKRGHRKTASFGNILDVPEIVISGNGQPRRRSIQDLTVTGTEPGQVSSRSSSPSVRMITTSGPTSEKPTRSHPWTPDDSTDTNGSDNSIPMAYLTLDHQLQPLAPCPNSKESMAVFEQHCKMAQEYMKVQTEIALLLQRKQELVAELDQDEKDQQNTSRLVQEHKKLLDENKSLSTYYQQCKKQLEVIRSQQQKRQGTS

RPS6KA1 = RPS6KA1 (Homo sapiens, UniProt Q15418); test: biochemical; design: endogenous in cells; host or cells: K562 cell extract; species or system K562 (extract); replicate k of n = 2 (each experiment ID is one independent experiment; two experiment IDs per compound); settings: read-out: KDapp
Sequence of RPS6KA1 (Q15418 whole entry): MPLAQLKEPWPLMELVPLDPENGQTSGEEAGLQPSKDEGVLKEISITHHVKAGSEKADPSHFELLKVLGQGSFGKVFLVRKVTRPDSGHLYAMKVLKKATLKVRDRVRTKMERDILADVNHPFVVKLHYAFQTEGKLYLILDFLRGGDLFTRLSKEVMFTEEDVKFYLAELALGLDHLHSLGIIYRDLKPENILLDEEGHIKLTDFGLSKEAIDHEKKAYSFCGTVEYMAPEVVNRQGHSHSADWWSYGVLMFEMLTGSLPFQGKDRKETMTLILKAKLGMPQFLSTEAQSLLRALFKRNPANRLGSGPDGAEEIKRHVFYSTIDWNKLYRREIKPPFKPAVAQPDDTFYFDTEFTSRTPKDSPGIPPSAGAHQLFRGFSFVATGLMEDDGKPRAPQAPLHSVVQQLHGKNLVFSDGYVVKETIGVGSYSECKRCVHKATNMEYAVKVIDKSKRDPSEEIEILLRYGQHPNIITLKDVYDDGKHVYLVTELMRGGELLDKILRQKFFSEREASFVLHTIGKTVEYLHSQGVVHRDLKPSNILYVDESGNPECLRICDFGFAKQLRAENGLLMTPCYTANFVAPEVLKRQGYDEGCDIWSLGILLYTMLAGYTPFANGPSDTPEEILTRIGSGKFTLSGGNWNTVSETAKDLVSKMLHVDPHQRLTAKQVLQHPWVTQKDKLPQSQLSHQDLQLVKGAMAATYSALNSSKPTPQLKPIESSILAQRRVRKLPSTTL

ULK1 = molecular target: T2, ULK1 (Homo sapiens, UniProt O75385); test: biochemical; design: endogenous in cells; host or cells: K562 cell extract; species or system K562 (extract); replicate k of n = 2 (each experiment ID is one independent experiment; two experiment IDs per compound); settings: read-out: KDapp
T2 sequence (O75385 1-1050): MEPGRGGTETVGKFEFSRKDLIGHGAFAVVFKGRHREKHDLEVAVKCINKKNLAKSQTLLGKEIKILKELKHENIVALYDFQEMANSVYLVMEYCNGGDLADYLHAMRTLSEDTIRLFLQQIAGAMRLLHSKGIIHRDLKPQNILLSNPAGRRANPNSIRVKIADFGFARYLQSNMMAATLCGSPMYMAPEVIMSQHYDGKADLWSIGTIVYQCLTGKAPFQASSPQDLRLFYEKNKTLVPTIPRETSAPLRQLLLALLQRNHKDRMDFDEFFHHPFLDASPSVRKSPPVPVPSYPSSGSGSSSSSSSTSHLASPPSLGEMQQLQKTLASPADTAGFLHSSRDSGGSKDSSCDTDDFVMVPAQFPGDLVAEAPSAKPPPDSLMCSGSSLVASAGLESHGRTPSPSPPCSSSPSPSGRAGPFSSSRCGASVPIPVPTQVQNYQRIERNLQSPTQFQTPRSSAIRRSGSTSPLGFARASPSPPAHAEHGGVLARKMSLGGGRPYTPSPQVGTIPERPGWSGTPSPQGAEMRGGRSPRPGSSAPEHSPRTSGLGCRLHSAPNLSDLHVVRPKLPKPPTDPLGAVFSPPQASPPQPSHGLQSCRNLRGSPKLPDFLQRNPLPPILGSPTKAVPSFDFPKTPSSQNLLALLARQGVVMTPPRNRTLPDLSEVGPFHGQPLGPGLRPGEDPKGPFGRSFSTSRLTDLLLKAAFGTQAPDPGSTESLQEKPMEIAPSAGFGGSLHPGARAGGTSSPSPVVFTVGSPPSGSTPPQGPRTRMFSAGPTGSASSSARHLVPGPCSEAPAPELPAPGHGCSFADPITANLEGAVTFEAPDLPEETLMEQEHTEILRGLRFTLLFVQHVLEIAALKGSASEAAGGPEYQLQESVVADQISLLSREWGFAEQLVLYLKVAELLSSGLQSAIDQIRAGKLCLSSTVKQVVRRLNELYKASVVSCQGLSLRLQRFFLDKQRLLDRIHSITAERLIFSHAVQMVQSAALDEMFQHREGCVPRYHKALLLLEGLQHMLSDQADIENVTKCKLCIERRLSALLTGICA

PRKX = molecular target: T3, PRKX (Homo sapiens, UniProt P51817); test: biochemical; design: endogenous in cells; host or cells: K562 cell extract; species or system K562 (extract); replicate k of n = 2 (each experiment ID is one independent experiment; two experiment IDs per compound); settings: read-out: KDapp
T3 sequence (P51817 1-358): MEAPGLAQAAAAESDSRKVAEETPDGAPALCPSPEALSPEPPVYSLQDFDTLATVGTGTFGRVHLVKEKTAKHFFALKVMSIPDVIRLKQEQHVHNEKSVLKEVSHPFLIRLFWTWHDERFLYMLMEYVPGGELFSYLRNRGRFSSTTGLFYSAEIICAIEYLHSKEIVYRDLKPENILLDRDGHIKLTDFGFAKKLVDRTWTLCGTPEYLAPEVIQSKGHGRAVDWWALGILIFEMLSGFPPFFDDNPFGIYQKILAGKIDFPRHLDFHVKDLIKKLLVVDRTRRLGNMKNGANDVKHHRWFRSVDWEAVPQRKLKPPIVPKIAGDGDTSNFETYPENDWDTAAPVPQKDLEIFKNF

STK38 = STK38 (Homo sapiens, UniProt Q15208); test: biochemical; design: endogenous in cells; host or cells: K562 cell extract; species or system K562 (extract); replicate k of n = 2 (each experiment ID is one independent experiment; two experiment IDs per compound); settings: read-out: KDapp
Sequence of STK38 (Q15208 whole entry): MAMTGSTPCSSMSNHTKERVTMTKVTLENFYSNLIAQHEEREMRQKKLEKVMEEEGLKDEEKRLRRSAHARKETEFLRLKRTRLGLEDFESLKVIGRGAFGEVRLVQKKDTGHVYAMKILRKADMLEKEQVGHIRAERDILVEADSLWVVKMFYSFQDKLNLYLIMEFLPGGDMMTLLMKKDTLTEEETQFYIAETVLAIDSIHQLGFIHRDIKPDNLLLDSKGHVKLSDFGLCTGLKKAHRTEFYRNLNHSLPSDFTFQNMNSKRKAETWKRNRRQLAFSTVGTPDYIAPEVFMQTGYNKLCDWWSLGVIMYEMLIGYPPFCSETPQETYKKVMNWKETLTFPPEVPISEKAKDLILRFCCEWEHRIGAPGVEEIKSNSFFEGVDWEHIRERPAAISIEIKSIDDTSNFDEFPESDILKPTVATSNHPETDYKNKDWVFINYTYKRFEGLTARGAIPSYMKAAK

[1] = AAK1, K-562 extract, conc. series 20.0-0.0uM, channel assignment not given

Sequence of AAK1 (Q2M2I8 whole entry): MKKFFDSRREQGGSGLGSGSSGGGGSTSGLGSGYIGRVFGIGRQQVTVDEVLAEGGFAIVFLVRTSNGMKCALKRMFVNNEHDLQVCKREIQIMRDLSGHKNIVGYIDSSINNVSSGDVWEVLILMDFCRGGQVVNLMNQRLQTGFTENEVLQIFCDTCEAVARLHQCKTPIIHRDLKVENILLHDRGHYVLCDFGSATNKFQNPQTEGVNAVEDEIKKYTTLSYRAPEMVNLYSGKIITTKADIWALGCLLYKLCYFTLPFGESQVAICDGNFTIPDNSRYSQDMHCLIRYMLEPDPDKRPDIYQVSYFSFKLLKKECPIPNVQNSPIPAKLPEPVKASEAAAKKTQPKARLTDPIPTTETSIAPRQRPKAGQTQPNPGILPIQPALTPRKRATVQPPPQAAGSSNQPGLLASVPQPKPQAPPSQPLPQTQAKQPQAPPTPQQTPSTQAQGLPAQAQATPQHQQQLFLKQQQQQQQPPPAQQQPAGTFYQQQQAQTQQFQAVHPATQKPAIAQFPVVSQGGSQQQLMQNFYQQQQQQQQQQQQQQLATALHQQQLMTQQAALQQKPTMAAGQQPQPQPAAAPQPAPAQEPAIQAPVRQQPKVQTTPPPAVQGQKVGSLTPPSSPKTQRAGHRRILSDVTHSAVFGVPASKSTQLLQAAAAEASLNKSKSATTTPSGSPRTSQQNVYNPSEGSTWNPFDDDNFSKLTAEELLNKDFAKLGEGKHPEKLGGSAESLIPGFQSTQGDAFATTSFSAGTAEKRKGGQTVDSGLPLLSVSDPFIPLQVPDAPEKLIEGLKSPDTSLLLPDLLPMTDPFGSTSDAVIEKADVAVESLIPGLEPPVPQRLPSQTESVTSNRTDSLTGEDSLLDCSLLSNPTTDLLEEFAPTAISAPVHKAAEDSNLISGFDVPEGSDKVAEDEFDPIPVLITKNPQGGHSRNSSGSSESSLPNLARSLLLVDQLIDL
Sequence of PLK1 (P53350 whole entry): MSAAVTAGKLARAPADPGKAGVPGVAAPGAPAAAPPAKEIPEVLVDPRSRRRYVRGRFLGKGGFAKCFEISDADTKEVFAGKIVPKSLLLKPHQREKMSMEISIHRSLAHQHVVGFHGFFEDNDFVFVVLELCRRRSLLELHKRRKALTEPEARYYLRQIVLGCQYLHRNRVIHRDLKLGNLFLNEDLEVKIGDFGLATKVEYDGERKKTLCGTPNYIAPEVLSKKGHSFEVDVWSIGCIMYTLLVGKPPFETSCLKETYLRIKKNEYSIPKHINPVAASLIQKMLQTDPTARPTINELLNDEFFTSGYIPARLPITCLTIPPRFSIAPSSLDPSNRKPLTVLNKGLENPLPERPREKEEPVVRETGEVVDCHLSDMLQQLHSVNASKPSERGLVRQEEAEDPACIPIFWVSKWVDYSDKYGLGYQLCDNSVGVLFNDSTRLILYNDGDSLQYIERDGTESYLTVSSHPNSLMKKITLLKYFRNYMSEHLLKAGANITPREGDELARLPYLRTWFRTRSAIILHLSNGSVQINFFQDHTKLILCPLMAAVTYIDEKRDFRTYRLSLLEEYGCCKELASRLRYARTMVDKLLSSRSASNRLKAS

CN(C)CC(O)COc1ccc(Nc2ncc([N+](=O)[O-])c(Nc3ccccc3O)n2)cc1.O=C(O)C(F)(F)F (centres unmarked) [TCMDC-141399]
PCT_INHB_DD2 (P. falciparum DD2): 20

Cl.NCC1(c2nc(-c3ccc(Cl)c(O)c3)c(-c3ccncc3)[nH]2)CCCCC1 [TCMDC-141154]
pIC50 (AAK1): < 4.70 | abundance relative to vehicle TMT126 (AAK1; AAK1, K-562 extract, conc. series 20.0, 4.0, 0.8, 0.16, 0.032, 0.0uM, channel assignment not given): 0.86 | abundance relative to vehicle TMT127L (AAK1; [1]): 0.83 | abundance relative to vehicle TMT128H (AAK1; [1]): 0.89 | abundance relative to vehicle TMT129L (AAK1; [1]): 1.02 | abundance relative to vehicle TMT130H (AAK1; [1]): 1.01 | Hill (AAK1; AAK1, kinobead competition curve): 0.56 | pIC50 (PLK1): < 4.70

CN1CCN(c2ccc(Nc3ncc(C#N)c(Nc4ccccc4C(N)=O)n3)cc2)CC1.Cl [TCMDC-134116]
pKd (MAP3K7): 5.83 and 6.09 | pKd (RPS6KA1): 7.02 | pKd (ULK1): 7.02 | pKd (PRKX): 5.99 | pKd (STK38): 6.51 and 6.60

From PMC4774911, “Biochemical Screening of Five Protein Kinases from Plasmodium falciparum against 14,000 Cell-Active Compounds” (PLoS ONE, 2016)
